Structures can show the parent of a compound that is named as a salt.

This data set in a line: Solubility of belumosudil mesylate. Format: physicochemical.

Turning to `CC(C)NC(=O)COc1cccc(-c2nc(Nc3ccc4[nH]ncc4c3)c3ccccc3n2)c1` [Belumosudil mesylate, 2-{3-[4-(1H-indazol-5-ylamino)-2-quinazolinyl]phenoxy}-N-(propan-2-yl) acetamide methanesulfonate (1:1)], the “solubility in DMSO” value (DMSO) is reported as “soluble”. Moreover, the “solubility in methanol and DMF” value (methanol and DMF) is given as “slightly soluble”. The solubility in water entry (water) was “practically insoluble”.
